One test concerns the target PfCDPK1 (Plasmodium falciparum (isolate 3D7), UniProt P62344). Briefly: biochemical. The settings on record: read-out: PfCDPK1 (% inhibition @ 3 uM).
A further test addresses TgCDPK1 (Toxoplasma gondii, UniProt Q9BJF5). In kind it is biochemical.
In the next test the target is PfCDPK4 (Plasmodium falciparum (isolate 3D7), UniProt Q8IBS5). Briefly: biochemical. The settings on record: read-out: PfCDPK4 (% inhibition @ 3 uM).

Sequence of TgCDPK1 (Q9BJF5 1-507): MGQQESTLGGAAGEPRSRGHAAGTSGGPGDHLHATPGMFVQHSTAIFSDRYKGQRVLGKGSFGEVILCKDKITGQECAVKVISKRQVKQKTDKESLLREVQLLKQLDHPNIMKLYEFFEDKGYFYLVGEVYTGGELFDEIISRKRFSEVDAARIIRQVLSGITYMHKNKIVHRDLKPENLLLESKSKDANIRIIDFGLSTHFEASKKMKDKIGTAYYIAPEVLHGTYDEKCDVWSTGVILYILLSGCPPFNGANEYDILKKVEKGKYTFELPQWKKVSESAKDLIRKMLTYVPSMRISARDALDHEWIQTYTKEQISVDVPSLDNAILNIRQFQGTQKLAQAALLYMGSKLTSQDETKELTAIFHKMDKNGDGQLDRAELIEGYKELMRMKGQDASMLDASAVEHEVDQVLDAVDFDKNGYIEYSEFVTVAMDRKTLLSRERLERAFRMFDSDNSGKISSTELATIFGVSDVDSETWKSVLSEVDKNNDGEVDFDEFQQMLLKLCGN

By inhibition is commonly meant the drop in the measured response relative to a control, in per cent. As for `CC(C)n1nc(-c2ccc(Cl)cc2)c2c(N)ncnc21` [Compound 7a, 3-(4-chlorophenyl)-1-isopropyl-1H-pyrazolo[3,4-d]pyrimidin-4-amine], the inhibition at 3 µM on PfCDPK1 is 97%; on PfCDPK4, 86%. Also, on TgCDPK1, the “relative potency TgCDPK1 versus CpCDPK1 (in words)” value was “more potent against TgCDPK1 than CpCDPK1”.
Regarding `CSc1cccc(-c2nn(C(C)C)c3ncnc(N)c23)c1` [Compound 7ab, 1-isopropyl-3-(3-(methylthio)phenyl)-1H-pyrazolo[3,4-d]pyrimidin-4-amine], the “relative potency TgCDPK1 versus CpCDPK1 (in words)” value on TgCDPK1 is “more potent against TgCDPK1 than CpCDPK1”.
For `CC(C)n1nc(-c2cccc(Cl)c2)c2c(N)ncnc21` [Compound 7b, 3-(3-chlorophenyl)-1-isopropyl-1H-pyrazolo[3,4-d]pyrimidin-4-amine], the inhibition at 3 µM was determined as 72% on PfCDPK1 and 85% on PfCDPK4. In addition, the “relative potency TgCDPK1 versus CpCDPK1 (in words)” value on TgCDPK1 is reported as “more potent against TgCDPK1 than CpCDPK1”.
As for `CC(C)c1ccc(-c2nn(C(C)C)c3ncnc(N)c23)cc1` [Compound 7d, 1-isopropyl-3-(4-isopropylphenyl)-1H-pyrazolo[3,4-d]pyrimidin-4-amine], the inhibition at 3 µM at PfCDPK1 worked out at 90%; on PfCDPK4, 80%. In addition, the “relative potency TgCDPK1 versus CpCDPK1 (in words)” value at TgCDPK1 was “more potent against TgCDPK1 than CpCDPK1”.
In the case of `COc1cc(-c2nn(C(C)C)c3ncnc(N)c23)cc(OC)c1OC` [Compound 7l, 1-isopropyl-3-(3,4,5-trimethoxyphenyl)-1H-pyrazolo[3,4-d]pyrimidin-4-amine], the “relative potency TgCDPK1 versus CpCDPK1 (in words)” value at TgCDPK1 is “equipotent or slightly selective for CpCDPK1”.
Take `Cc1cccc2[nH]c(-c3nc(C(C)(C)C)n4ccnc(N)c34)cc12` [Compound 83]: the inhibition at 3 µM was 96% at PfCDPK1 and 93% on PfCDPK4.
Regarding `CC(C)(C)c1nc(-c2ccc3ccccc3c2)c2c(N)nccn12` [Compound 84], the figures for the inhibition at 3 µM at PfCDPK1 and at PfCDPK4 were 101% and 99%, respectively.
In the case of `CC(C)n1nc(-c2ccc3cc(OC(=O)c4cccc(Cl)c4)ccc3c2)c2c(N)ncnc21` [Compound 85], the inhibition at 3 µM on PfCDPK1 stood at 99%; at PfCDPK4, 72%.
In the case of `O=C(NCCO)Nc1nc2ccc(C(=O)c3ccccc3)cc2[nH]1` [Compound 90], the inhibition at 3 µM at PfCDPK1 stood at 77%; on PfCDPK4 it was 64%.
For the compound `O=C(NCCC1CCCNC1)Nc1nc2ccc(C(=O)c3ccccc3)cc2[nH]1` (stereo not drawn) [Compound 91], the values for the inhibition at 3 µM on PfCDPK1 and on PfCDPK4 were 73% and 59%, respectively.
Taken in the same sequence, the figures for `Nc1nc2ccc(C(=O)c3ccccc3)cc2[nH]1` [Compound 92] were 68% and 51%.
Turning to `CC(C)(C)OC(=O)NCCC(=O)Nc1nc2ccc(C(=O)c3ccccc3)cc2[nH]1` [Compound 93], the inhibition at 3 µM on PfCDPK1 amounted to 64%; on PfCDPK4, 49%.
Consider `NCCC(=O)Nc1nc2ccc(C(=O)c3ccccc3)cc2[nH]1` [Compound 94], for which the inhibition at 3 µM turned out to be 71% at PfCDPK1 and 51% at PfCDPK4.
Taken in the same sequence, the figures for `Nc1ncnc2c1c(I)nn2CC1CCNCC1` [Compound 98] were 85% and 9%.
Regarding `Nc1ncnc2c1cnn2CC1CCNCC1` [Compound 99], the inhibition at 3 µM on PfCDPK1 was 70%; at PfCDPK4 it was 5%.
The matching figures for `Nc1ncnc2c1c(-c1ccc(-c3ccccc3)cc1)nn2CC1CCNCC1` [Compound 100]: 101% and 68%.
Taken in the same sequence, the figures for `Nc1ncnc2c1c(-c1ccc(-c3nn(CC4CCNCC4)c4ncnc(N)c34)cc1)nn2CC1CCNCC1` [Compound 101] were 79% and 14%.
`NCCCC(=O)Nc1nc2ccc(C(=O)c3ccccc3)cc2[nH]1` [Compound 103]: the inhibition at 3 µM was 75% at PfCDPK1 and 58% on PfCDPK4.
Taken in the same sequence, the figures for `NCCCCCC(=O)Nc1nc2ccc(C(=O)c3ccccc3)cc2[nH]1` [Compound 105] were 71% and 76%.
Taken in the same sequence, the figures for `O=C(c1ccccc1)c1ccc2nc(NC(=O)[C@@H]3CCCN3)[nH]c2c1` [Compound 107] were 65% and 52%.
Taken in the same sequence, the figures for `N[C@@H](Cc1ccc(O)cc1)C(=O)Nc1nc2ccc(C(=O)c3ccccc3)cc2[nH]1` [Compound 109] were 54% and 30%.
Turning to `N[C@@H](Cc1c[nH]cn1)C(=O)Nc1nc2ccc(C(=O)c3ccccc3)cc2[nH]1` [Compound 111], the inhibition at 3 µM at PfCDPK1 was determined as 63%; at PfCDPK4, 41%.
`O=C(CC1CCNCC1)Nc1nc2ccc(C(=O)c3ccccc3)cc2[nH]1` [Compound 113]: the inhibition at 3 µM turned out to be 65% on PfCDPK1 and 61% on PfCDPK4.
With `O=C(CCCC1CCNCC1)Nc1nc2ccc(C(=O)c3ccccc3)cc2[nH]1` [Compound 115], the inhibition at 3 µM at PfCDPK1 stood at 71%; at PfCDPK4, 84%.
The matching figures for `O=C(CCC1CCNCC1)Nc1nc2ccc(C(=O)c3ccccc3)cc2[nH]1` [Compound 117]: 71% and 74%.
Taken in the same sequence, the figures for `Cc1cc(-c2nn(CC3CCNCC3)c3ncnc(N)c23)ccc1-c1ccccc1` [Compound 118] were 97% and 81%.
The matching figures for `Nc1ncnc2c1c(-c1ccc3cc(O)ccc3c1)nn2CC1CCNCC1` [Compound 119]: 102% and 101%.
For `Nc1ncnc2c1c(-c1ccc3oc(-c4ccccc4)nc3c1)nn2CC1CCNCC1` [Compound 120], the inhibition at 3 µM at PfCDPK1 stood at 101%; on PfCDPK4, 90%.
Consider `Cn1ncc2cc(-c3nn(CC4CCNCC4)c4ncnc(N)c34)ccc21` [Compound 121], for which the inhibition at 3 µM on PfCDPK1 and on PfCDPK4 was 93% throughout.
With `Nc1ncnc2c1c(-c1ccc3nccnc3c1)nn2CC1CCNCC1` [Compound 122], the inhibition at 3 µM on PfCDPK1 amounted to 97%; at PfCDPK4, 32%.
Taken in the same sequence, the figures for `CC(C)(C)n1ncc2c(N)ncnc21` [Compound 123] were 62% and 4%.
`CC(C)COc1ccc2cc(-c3nn(CC4CCN(C)CC4)c4ncnc(N)c34)ccc2c1` [Compound 124]: the values for the inhibition at 3 µM at PfCDPK1 and on PfCDPK4 were 98% and 93%, respectively.
For the compound `Nc1ncnc2c1c(-c1ccc3ncccc3c1)nn2CC1CCNCC1` [Compound 125], the inhibition at 3 µM was 89% on PfCDPK1 and 93% at PfCDPK4.
The matching figures for `O=C(NCCC1CCNCC1)Nc1nc2ccc(C(=O)c3ccccc3)cc2[nH]1` [Compound 126]: 76% and 65%.
In the case of `O=C(NCCCCO)Nc1nc2ccc(C(=O)c3ccccc3)cc2[nH]1` [Compound 127], the inhibition at 3 µM at PfCDPK1 was 68%; on PfCDPK4 it was 46%.
With `NCCCCNC(=O)Nc1nc2ccc(C(=O)c3ccccc3)cc2[nH]1` [Compound 128], the inhibition at 3 µM at PfCDPK1 is 79%; at PfCDPK4 it was 64%.
The matching figures for `CC(C)(C)n1nc(Br)c2c(N)ncnc21` [Compound 129]: 79% and 9%.
For `CC(C)COc1ccc2cc(-c3nn(C(C)(C)C)c4ncnc(N)c34)ccc2c1` [Compound 130], the inhibition at 3 µM is 95% at PfCDPK1 and 47% on PfCDPK4.
The matching figures for `CC(C)(C)n1nc(-c2ccc3oc(-c4ccccc4)nc3c2)c2c(N)ncnc21` [Compound 131]: 100% and 38%.
With `COc1ccc(-c2nn(C(C)(C)C)c3ncnc(N)c23)cc1C` [Compound 132], the inhibition at 3 µM at PfCDPK1 and on PfCDPK4 was 96% in each case.
Turning to `Cc1cc(-c2nn(C(C)(C)C)c3ncnc(N)c23)ccc1-c1ccccc1` [Compound 133], the inhibition at 3 µM on PfCDPK1 was found to be 79%; at PfCDPK4, 26%.
As for `Cc1cccc(-c2nn(C(C)(C)C)c3ncnc(N)c23)c1` [Compound 134], the figures for the inhibition at 3 µM at PfCDPK1 and at PfCDPK4 were 89% and 87%, respectively.
The matching figures for `COc1ccc2cc(-c3nn(C(C)(C)C)c4ncnc(N)c34)ccc2c1` [Compound 135]: 96% and 97%.
Consider `CC(C)(C)n1nc(-c2ccc(-c3ccccc3)cc2)c2c(N)ncnc21` [Compound 136], for which the values for the inhibition at 3 µM on PfCDPK1 and on PfCDPK4 were 90% and 16%, respectively.
Taken in the same sequence, the figures for `CCOc1ccc2cc(-c3nn(C(C)(C)C)c4ncnc(N)c34)ccc2c1` [Compound 137] were 95% and 95%.
For the compound `Cn1ccc2cc(-c3nn(C(C)(C)C)c4ncnc(N)c34)ccc21` [Compound 139], the values for the inhibition at 3 µM on PfCDPK1 and at PfCDPK4 were 99% and 96%, respectively.
Taken in the same sequence, the figures for `CC(C)(C)n1nc(-c2ccccc2)c2c(N)ncnc21` [Compound 140] were 98% and 90%.
`Cn1ncc2cc(-c3nn(C(C)(C)C)c4ncnc(N)c34)ccc21` [Compound 142]: the inhibition at 3 µM at PfCDPK1 was 98%; on PfCDPK4, 97%.
For `CC(C)(C)n1nc(-c2ccc3ncccc3c2)c2c(N)ncnc21` [Compound 143], the inhibition at 3 µM on PfCDPK1 and on PfCDPK4 was 97% throughout.
Regarding `COc1ccc(-c2nn(CC3CCNCC3)c3ncnc(N)c23)cc1C` [Compound 144], the inhibition at 3 µM on PfCDPK1 was found to be 95%; at PfCDPK4 it was 94%.
The matching figures for `Nc1ncnc2c1c(-c1ccccc1)nn2CC1CCNCC1` [Compound 145]: 93% and 63%.
Taken in the same sequence, the figures for `Nc1ncnc2c1c(-c1ccc3ccccc3c1)nn2CC1CCNCC1` [Compound 147, 3-(naphthalen-2-yl)-1-(piperidin-4-ylmethyl)-1H-pyrazolo[3,4-d]pyrimidin-4-amine] were 100% and 99%.

The values are drawn from patent US11247972B2, “Compositions and methods for treating toxoplasmosis, cryptosporidiosis, and other apicomplexan protozoan related diseases” (University of Washington through its Center for …, priority 2010, dated 2022).
